Data as given in PubChem BioAssay AID248 (DTP/NCI, 2004).
Where “and” joins values, the source holds several entries; their conditions need not be identical. Equal values may be shown once. Toxic doses and inconclusive results are not listed. Cut-off read from the data, not from the text of the source: active = T/C of 150% or more; inactive = T/C below 125%.

Test system: L1210 leukemia ip in BDF1 mice, survival T/C
Assay: NCI In Vivo Anticancer Drug Screen. Data for tumor model L1210 Leukemia (intraperitoneal) in B6D2F1 (BDF1) mice
Settings: endpoint: mean survival time, higher = longer survival
How it was run: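 Transplanted-tumor mice were given test agent; controls received vehicle only. Survival readings from the two groups were divided (treated over control).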

[1] = dose: 25.0 mg/kg/injection, schedule: Q01DX009 (ip), vehicle: Klucel (hydroxypropylcellulose) (HPC)
[2] = dose: 50.0 mg/kg/injection, schedule: Q01DX009 (ip), vehicle: Klucel (hydroxypropylcellulose) (HPC)
[3] = dose: 100.0 mg/kg/injection, schedule: Q01DX009 (ip), vehicle: Klucel (hydroxypropylcellulose) (HPC)
[4] = dose: 100.0 mg/kg/injection, schedule: Q04DX003 (ip), vehicle: Klucel (hydroxypropylcellulose) (HPC)
[5] = dose: 400.0 mg/kg/injection, schedule: Q04DX003 (ip), vehicle: Klucel (hydroxypropylcellulose) (HPC)
[6] = dose: 100.0 mg/kg/injection, schedule: Q01DX009 (ip), vehicle: saline with Tween-80
[7] = dose: 100.0 mg/kg/injection, schedule: Q04DX003 (ip), vehicle: saline with Tween-80
[8] = dose: 200.0 mg/kg/injection, schedule: Q01DX009 (ip), vehicle: saline with Tween-80
[9] = dose: 200.0 mg/kg/injection, schedule: Q04DX003 (ip), vehicle: saline with Tween-80
[10] = dose: 400.0 mg/kg/injection, schedule: Q01DX009 (ip), vehicle: saline with Tween-80
[11] = dose: 400.0 mg/kg/injection, schedule: Q04DX003 (ip), vehicle: saline with Tween-80
[12] = dose: 100.0 mg/kg/injection, schedule: Q04DX003 (ip), vehicle: saline
[13] = dose: 200.0 mg/kg/injection, schedule: Q04DX003 (ip), vehicle: saline
[14] = dose: 400.0 mg/kg/injection, schedule: Q04DX003 (ip), vehicle: saline
[15] = dose: 100.0 mg/kg/injection, schedule: Q04DX002 (ip), vehicle: Klucel (hydroxypropylcellulose) (HPC)
[16] = dose: 200.0 mg/kg/injection, schedule: Q04DX002 (ip), vehicle: Klucel (hydroxypropylcellulose) (HPC)
[17] = dose: 400.0 mg/kg/injection, schedule: Q04DX002 (ip), vehicle: Klucel (hydroxypropylcellulose) (HPC)
[18] = dose: 200.0 mg/kg/injection, schedule: Q01DX009 (ip), vehicle: Klucel (hydroxypropylcellulose) (HPC)

Measured: T/C

CC1CCCCC1C(=O)N1CCCCCC1 (stereo not drawn)
inactive: dose: 100.0 mg/kg/injection, schedule: Q04DX002 (ip), vehicle: saline 108 % of control | dose: 200.0 mg/kg/injection, schedule: Q04DX002 (ip), vehicle: saline 99 % of control | dose: 400.0 mg/kg/injection, schedule: Q04DX002 (ip), vehicle: saline 108 % of control

[N-]=[N+]=C1C(=O)NN=C1c1ccccc1
inactive: dose: 20.0 mg/kg/injection, schedule: Q04DX003 (ip), vehicle: Klucel (hydroxypropylcellulose) (HPC) 92 % of control | [1] 98 % of control | dose: 40.0 mg/kg/injection, schedule: Q04DX003 (ip), vehicle: Klucel (hydroxypropylcellulose) (HPC) 101 % of control | [2] 96 % of control and 108 % of control | dose: 80.0 mg/kg/injection, schedule: Q04DX003 (ip), vehicle: Klucel (hydroxypropylcellulose) (HPC) 97 % of control | [3] 101 % of control and 102 % of control | [4] 98 % of control and 101 % of control and 106 % of control | dose: 200.0 mg/kg/injection, schedule: Q04DX003 (ip), vehicle: Klucel (hydroxypropylcellulose) (HPC) 98 % of control | [5] 110 % of control

COc1cc(C)c(CN(C)C)c(OC)c1
inactive: dose: 27.0 mg/kg/injection, schedule: Q01DX Z (ip), vehicle: methylcellulose (MC) 102 % of control

CC(=O)OC1=CCCCC1c1ccccc1 (stereo not drawn)
inactive: [6] 103 % of control | [7] 98 % of control | [8] 111 % of control | [9] 98 % of control | [10] 103 % of control | [11] 109 % of control

NC(=NCCO)C(N)=NCCO
inactive: dose: 100.0 mg/kg/injection, schedule: Q01DX009 (ip), vehicle: saline 102 % of control | [12] 96 % of control | dose: 200.0 mg/kg/injection, schedule: Q01DX009 (ip), vehicle: saline 94 % of control | [13] 96 % of control | dose: 400.0 mg/kg/injection, schedule: Q01DX009 (ip), vehicle: saline 94 % of control | [14] 100 % of control

N#C/C(=C/c1ccccc1Cl)C(N)=O
inactive: [6] 100 % of control | [15] 100 % of control | [8] 94 % of control | [16] 93 % of control | [10] 94 % of control | [17] 107 % of control

CCCCCOc1nccc(N)n1
inactive: dose: 25.0 mg/kg/injection, schedule: Q01DX001 (ip), vehicle: saline with Tween-80 105 % of control | dose: 50.0 mg/kg/injection, schedule: Q01DX001 (ip), vehicle: saline with Tween-80 92 % of control | dose: 100.0 mg/kg/injection, schedule: Q01DX001 (ip), vehicle: saline with Tween-80 95 % of control

Oc1c(Br)cc(Br)c2cccnc12
inactive: [3] 100 % of control | [12] 98 % of control | [18] 91 % of control | [13] 102 % of control | dose: 400.0 mg/kg/injection, schedule: Q01DX009 (ip), vehicle: Klucel (hydroxypropylcellulose) (HPC) 86 % of control | [14] 96 % of control

O=C(CC(c1ccccc1)N1CCN(c2ccccc2)CC1)c1ccc(F)cc1 (stereo not drawn)
inactive: dose: 12.5 mg/kg/injection, schedule: Q01DX009 (ip), vehicle: Klucel (hydroxypropylcellulose) (HPC) 88 % of control | [1] 93 % of control | [2] 93 % of control | dose: 200.0 mg/kg/injection, schedule: Q01DX009 (ip), vehicle: gum acacia 87 % of control | dose: 400.0 mg/kg/injection, schedule: Q01DX009 (ip), vehicle: gum acacia 89 % of control

COc1cccc(CCNC(=O)CC(=O)O)c1OC
inactive: [12] 92 % of control | [13] 103 % of control | [14] 110 % of control

CCOC(=O)C(N)Cc1cc(I)c(O)c(I)c1 (stereo not drawn)
inactive: [7] 95 % of control | [9] 97 % of control | [11] 101 % of control

CCCC[N+](C)(C)CCOC(=O)C1C2CC3OC(=O)C1C3C2 (stereo not drawn)
inactive: [12] 95 % of control

CC(C)N(CCC#N)CN1C(=O)c2ccccc2C1=O
inactive: [3] 94 % of control | [18] 91 % of control

Nc1ccc2ccccc2c1S(=O)(=O)O
inactive: [7] 98 % of control | [9] 95 % of control | [11] 98 % of control

CC1CCC(C(C)C)/C(=N/S)C1 (stereo not drawn)
inactive: dose: 75.0 mg/kg/injection, schedule: Q04DX003 (ip), vehicle: saline 93 % of control | dose: 150.0 mg/kg/injection, schedule: Q04DX003 (ip), vehicle: saline 96 % of control | dose: 300.0 mg/kg/injection, schedule: Q04DX003 (ip), vehicle: saline 104 % of control

COc1ccc(C=NCCN=Cc2ccc(OC)cc2)cc1
inactive: [2] 88 % of control | [3] 106 % of control | [4] 86 % of control | [18] 104 % of control | [5] 90 % of control

CC(=O)OC(OC(C)=O)c1ccc([N+](=O)[O-])c([N+](=O)[O-])c1
inactive: dose: 12.5 mg/kg/injection, schedule: Q01DX001 (ip), vehicle: carboxymethylcellulose (CMC) 97 % of control | dose: 25.0 mg/kg/injection, schedule: Q01DX001 (ip), vehicle: carboxymethylcellulose (CMC) 97 % of control | dose: 50.0 mg/kg/injection, schedule: Q01DX001 (ip), vehicle: carboxymethylcellulose (CMC) 94 % of control

CC(=O)Nc1ccc(OC(=O)c2cccc([N+](=O)[O-])c2)cc1
inactive: dose: 100.0 mg/kg/injection, schedule: Q01DX001 (ip), vehicle: saline 107 % of control | dose: 200.0 mg/kg/injection, schedule: Q01DX001 (ip), vehicle: saline 101 % of control | dose: 400.0 mg/kg/injection, schedule: Q01DX001 (ip), vehicle: saline 104 % of control

COP(=O)(NNc1cc(Cl)ccc1Cl)OC
inactive: [7] 104 % of control | [9] 106 % of control | [11] 101 % of control

CN(C)C1CS(=O)(=O)C1C1CS(=O)(=O)C1 (stereo not drawn)
inactive: [15] 89 % of control | [16] 86 % of control | [17] 96 % of control

CC(=O)Oc1ccc(C2CC(=O)OC2=O)cc1 (stereo not drawn)
inactive: [6] 105 % of control | [7] 92 % of control | [8] 97 % of control | [9] 91 % of control | [10] 87 % of control | [11] 92 % of control
